Test results reported in the NIST ThermoML archive (doi:10.1021/je800224k).

Settings: Liquid, Bellows volumetry

CCCCCCn1cc[n+](C)c1.F[P-](F)(F)(F)(F)F [1-hexyl-3-methylimidazolium hexafluorophosphate]
mass density [kg/m3]
Settings	393 K	412.9 K	432.8 K	452.5 K	472.3 K
10000 kPa	–	1211	1197	1183	1169
20000 kPa	–	1219	1205	1191	1177
30000 kPa	–	1226	1212	1199	1185
40000 kPa	–	1232	1219	1206	1193
50000 kPa	–	1239	1226	1213	1200
60000 kPa	–	1245	1232	1219	1207
70000 kPa	–	1251	1238	1226	1213
80000 kPa	–	1256	1244	1232	1220
90000 kPa	1274	1262	1250	1237	1226
100000 kPa	1279	1267	1255	1243	1231
110000 kPa	1284	1272	1260	1248	1237
120000 kPa	1289	1277	1265	1254	1242
130000 kPa	1293	1282	1270	1259	1247
140000 kPa	1298	1286	1275	1263	1253
150000 kPa	1302	1291	1279	1268	1257
160000 kPa	1306	1295	1284	1273	1262
170000 kPa	1310	1299	1288	1277	1267
180000 kPa	1314	1303	1292	1282	1271
190000 kPa	1318	1307	1297	1286	1276
200000 kPa	1322	1311	1301	1290	1280
